According to ChEMBL document CHEMBL1926654, “Design and synthesis of novel β-diketo derivatives as HIV-1 integrase inhibitors” (Bioorg Med Chem, 2012):

What was measured:
[1] = target: Human immunodeficiency virus type 1 integrase (Human immunodeficiency virus 1, UniProt Q7ZJM1); test: Inhibition of Human immunodeficiency virus 1 integrase-mediated strand transfer activity after 1 hr
[2] = system: Human immunodeficiency virus 1; test: Antiviral activity against Human immunodeficiency virus 1 infected in human TZM-bl cells assessed as inhibition of viral replication after 48 hrs by inverted microscopic analysis; assay type: functional, organism-based; details: Human immunodeficiency virus 1, TZM-bl
[3] = Cytotoxicity against human TZM-bl cells after 48 hrs by MTT assay; assay type: cell-based
[4] = Therapeutic index, ratio of CC50 for human TZM-bl cells to EC50 for Human immunodeficiency virus 1; assay type: cell-based; details: read-out: Ratio CC50/EC50

Human immunodeficiency virus type 1 integrase, sequence (Q7ZJM1 whole entry): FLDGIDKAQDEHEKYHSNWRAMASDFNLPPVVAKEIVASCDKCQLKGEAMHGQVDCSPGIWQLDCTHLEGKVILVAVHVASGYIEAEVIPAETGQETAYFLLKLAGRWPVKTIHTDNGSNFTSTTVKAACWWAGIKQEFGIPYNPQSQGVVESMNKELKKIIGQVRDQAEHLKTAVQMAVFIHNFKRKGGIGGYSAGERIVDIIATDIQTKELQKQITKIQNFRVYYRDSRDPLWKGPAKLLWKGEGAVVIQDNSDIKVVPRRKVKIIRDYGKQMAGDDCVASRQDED

Cc1c(C(=O)/C=C(\O)c2ccc(O)c(O)c2)nnn1Cc1cccc(F)c1
IC50 [1]: 32 µM

Cc1c(C(=O)/C=C(\O)c2ccccc2)nnn1Cc1cccc(F)c1
IC50 [1]: > 59 µM

Cc1c(C(=O)/C=C(\O)c2ccc(O)cc2)nnn1Cc1cccc(F)c1
IC50 [1]: > 56 µM

Cc1c(C(=O)/C=C(\O)c2cc(O)c(O)c(O)c2)nnn1Cc1ccc(F)cc1
EC50 [2]: 8.92 µM | CC50 at 48 h [3]: 33.4 µM | selectivity ratio [4]: 3.7 | IC50 [1]: 2.6 µM

Cc1c(C(=O)/C=C(\O)c2ccccc2)nnn1Cc1ccc(F)cc1
IC50 [1]: > 59 µM

COc1ccc(/C(O)=C/C(=O)c2nnn(Cc3ccc(F)cc3)c2C)cc1OC
IC50 [1]: > 50 µM

COc1ccc(/C(O)=C/C(=O)c2nnn(Cc3ccc(F)cc3)c2C)cc1
IC50 [1]: > 54 µM

Cc1c(C(=O)/C=C(\O)c2cc(O)c(O)c(O)c2)nnn1Cc1cccc(F)c1
EC50 [2]: 7.32 µM | CC50 at 48 h [3]: 36.6 µM | selectivity ratio [4]: 5 | IC50 [1]: 0.78 µM

COc1ccc(/C(O)=C/C(=O)c2nnn(Cc3cccc(F)c3)c2C)cc1
IC50 [1]: > 54 µM

COc1cc(/C(O)=C/C(=O)c2nnn(Cc3cccc(F)c3)c2C)cc(OC)c1OC
IC50 [1]: > 47 µM

Cc1c(C(=O)/C=C(\O)c2ccc(O)cc2)nnn1Cc1ccc(F)cc1
IC50 [1]: > 56 µM

COc1ccc(/C(O)=C/C(=O)c2nnn(Cc3cccc(F)c3)c2C)cc1OC
IC50 [1]: > 50 µM

COc1cc(/C(O)=C/C(=O)c2nnn(Cc3ccc(F)cc3)c2C)cc(OC)c1OC
IC50 [1]: > 47 µM

Cc1nnc(C(=O)NC(C)(C)c2nc(C(=O)NCc3ccc(F)cc3)c(O)c(=O)n2C)o1
EC50 [2]: 0.025 µM | CC50 at 48 h [3]: > 30 µM

Cc1c(C(=O)/C=C(\O)c2ccc(O)c(O)c2)nnn1Cc1ccc(F)cc1
IC50 [1]: 40 µM
